Source: patent US8852584B2, “Bactericide having selectivity to cariogenic bacterium, and a method for sterilization of cariogenic bacterium” (Two Cells Co., Ltd., priority 2005, dated 2014)

Legend:
S. mutans PMZ175 = assay: bacteriolytic effect, decrease in turbidity with time, various surfactants added to Aml; format: cell-based, Streptococcus mutans; settings: Table 3
Method: (§1) The method for measuring the bacteriolytic effect adopted in the present invention is as follows.
(§2) The bacterial strain to be measured its bacteriolytic effect was cultivated overnight, it was washed by physiological saline then suspended into 0.1M phosphate buffer (pH 6.8) containing 0.1M NaCl and 0.1 mM CaCl2. The cell body was treated by ultrasonic generator to disperse the cell body. Thereafter, 500 μg/ml Aml solution dissolved into 30% ethyleneglycol-0.1M sodium phosphate buffer (pH 6.3) and 5 mg/ml surfactant dissolved into distilled water (40 μl) were added into a system consisting of 1 ml of bacterial suspension. 0.1M phosphate buffer solution and 0.1 mM calcium. It was incubated at 37° C., then the turbidity was measured with time, and the bacteriolytic effect was evaluated using the rate of decrease in turbidity as an index.
Using S. mutans PMZ175 (a cariogenic bacterium), the bacteriolytic effect was investigated using experimental systems in which various surfactants were added to Aml (FIG. 3, Table 3). Meanwhile, the food additives investigated in this experiment were glycyrrhizin (0.5%), saponin from quillaya (0.5%), S1670 (0.1%), S1570 (0.05%), P1670 (0.05%), saponin from soybean (0.05%), saponin from yucca (0.05%), and Triton X (0.05%).

Streptcoccus mutans 403R = assay: bacteriolytic effect, decrease in turbidity with time; format: cell-based, Streptococcus mutans; settings: for percentage of turbidity (beginning = 100%): Table 1, Aml alone or Aml + 0.05% surfactant
Method: as §1, §2
Using Streptcoccus mutans 403R (dental caries causing bacterium), the bacteriolytic effect was measured with time using an experimental system of Aml alone, and an experimental system of Aml added with P1670 or S1570 at the concentration of 0.05% (Table 1, FIG. 1). In table 1 and FIG. 1, the turbidity of the bacterial solution at the beginning of the experiment was indicated as 100%, and the bacteriolytic effect was represented by the percentage of turbidity at each time point. […] By the way, the control indicates a system in which only a cariogenic bacterium was cultivated.
Using Streptcoccus mutans 403R, the bacteriolytic effect was measured with time on systems in which P1670 or S1570 was added into Aml at various final concentrations (0.05%, 0.025%, 0.001%) (Table 2, FIG. 2).

Q: What does the source list for `CC1(C)[C@@H](O[C@H]2O[C@H](C(=O)O)[C@@H](O)[C@H](O)[C@H]2O[C@@H]2O[C@H](C(=O)O)[C@@H](O)[C@H](O)[C@H]2O)CC[C@]2(C)[C@H]3C(=O)C=C4[C@@H]5C[C@@](C)(C(=O)O)CC[C@]5(C)CC[C@@]4(C)[C@]3(C)CC[C@@H]12` [Glycyrrhizin, glycyrrhizin]?
A: percentage of turbidity (beginning = 100%) (S. mutans PMZ175; Aml + 0.5% surfactant, Time 0): 100.0%; percentage of turbidity (beginning = 100%) (S. mutans PMZ175; Aml + 0.5% surfactant, Time 0.25): 96.6%; percentage of turbidity (beginning = 100%) (S. mutans PMZ175; Aml + 0.5% surfactant, Time 0.5): 93.6%; percentage of turbidity (beginning = 100%) (S. mutans PMZ175; Aml + 0.5% surfactant, Time 1): 89.0%; percentage of turbidity (beginning = 100%) (S. mutans PMZ175; Aml + 0.5% surfactant, Time 1.5): 81.3%; percentage of turbidity (beginning = 100%) (S. mutans PMZ175; Aml + 0.5% surfactant, Time 2.5): 83.7%; percentage of turbidity (beginning = 100%) (S. mutans PMZ175; Aml + 0.5% surfactant, Time 3): 80.3%; percentage of turbidity (beginning = 100%) (S. mutans PMZ175; Aml + 0.5% surfactant, Time 3.5): 82.3%; percentage of turbidity (beginning = 100%) (S. mutans PMZ175; Aml + 0.5% surfactant, Time 4): 77.4%

Q: Which results are given for `CC(C)(C)CC(C)(C)c1ccc(OCCO)cc1` [Triton, Triton X]?
A: percentage of turbidity (beginning = 100%) (S. mutans PMZ175; Aml + 0.05% surfactant, Time 0): 100.0%; percentage of turbidity (beginning = 100%) (S. mutans PMZ175; Aml + 0.05% surfactant, Time 0.25): 93.8%; percentage of turbidity (beginning = 100%) (S. mutans PMZ175; Aml + 0.05% surfactant, Time 0.5): 68.6%; percentage of turbidity (beginning = 100%) (S. mutans PMZ175; Aml + 0.05% surfactant, Time 1): 10.3%; percentage of turbidity (beginning = 100%) (S. mutans PMZ175; Aml + 0.05% surfactant, Time 1.5): −3.4%; percentage of turbidity (beginning = 100%) (S. mutans PMZ175; Aml + 0.05% surfactant, Time 2.5): −6.6%; percentage of turbidity (beginning = 100%) (S. mutans PMZ175; Aml + 0.05% surfactant, Time 3): −7.1%; percentage of turbidity (beginning = 100%) (S. mutans PMZ175; Aml + 0.05% surfactant, Time 3.5): −7.7%; percentage of turbidity (beginning = 100%) (S. mutans PMZ175; Aml + 0.05% surfactant, Time 4): −8.8%

B1: automutanolysin (protein)
chain: MKSKTYLMIPLALTLFMAANKISADEQNQSLSASEVISSDATSVSELPATTAQISQEVRNNGQDSTIQLQQTQEQSDPITSTSETTVSSMKAATNGSPAKANETETVPSQASTASSVQTPDQILTVPSVKAETTSTADQLQSTSSAPLDQQTDAKRLSNKMTPASSVQARSSLTQDKQVQAQEVTSAVVEEKGIKLQYNGQIARNTKIQFAVWSARNDQDDLQWYTANNMGAAYAEFKNHREYGTYYVHTYANQNGKMIGLNATTLTIAQPQVQTNIQRKSATNFELTVSNVPNTISGIMVPVWSDQNGQDDIKWYNARKADDGSYKVLIDTKNHKNDLGHYEAHIYGYSTVTQSQIGLAVSSGFDRNDTRPNARISVANYDQNKTTFDVVVEGSSDTKTVSAVNIAVWSEDKGQDDLKWYSPKIVDNKATVTINIANHSNTSDKYNVHVYTDYTDGTHSGTILGAYQINKPLEKNTVSADLTSDGIALKLDSNTVTDYTKVRFAVWSDQNGQDDLKWYSANSDGTATAAYSNHSGYGLYHIHTYIIKDGKMVGLNGKTITINQPSAKVDIAKESDALYKVTVSNLPAYISSVVIPVWTDKNNQDDIQWIPATKQGDGTYAAQIQLADHNGETGHYNVHVYGQSKFDNKAVGLAATDGFNVAETRNAVIAASNYNASAGTIDMIVKQEAGGKAIKEVRIAAWSEADQSNLHWYVSSTIIDGKVTVTINEKNHQYIKGNYNIHVYVDYTDGTSSGTNIGNYSLNADKPAVALPSYFIDISSHNGIISVAEFNSLKQQGIQGVVVKLTEGTSYINPYASSQIANARAAGIKVSAYHYAHYTSAAGAQEEARYFANAARSFGLEASTVMVNDMEESSMVNNINNNVQAWQDEMRRQGYSNLIHYTMASWLDIRGGQVDTARFGINNFWVAHYAKGYTYMTQEEAKSLNYYANAAAWQYTSVSSKLSHALDENIDYTGRFTQQ
modifications: Streptococcus mutans
notes: bacterial cell wall lytic enzyme from Streptococcus mutans specific to cariogenic bacterium
Q: Which results are given for B1?
A: percentage of turbidity (beginning = 100%) (Streptcoccus mutans 403R; Time 0): 100.0%; percentage of turbidity (beginning = 100%) (Streptcoccus mutans 403R; Time 0.25): 93.3%; percentage of turbidity (beginning = 100%) (Streptcoccus mutans 403R; Time 0.5): 81.5%; percentage of turbidity (beginning = 100%) (Streptcoccus mutans 403R; Time 1): 62.6%; percentage of turbidity (beginning = 100%) (Streptcoccus mutans 403R; Time 1.5): 50.8%; percentage of turbidity (beginning = 100%) (Streptcoccus mutans 403R; Time 2): 42.2%; percentage of turbidity (beginning = 100%) (Streptcoccus mutans 403R; Time 4): 24.6%; time required for the bacteriolysis of 50% of living bacterium (ED50) (Streptcoccus mutans 403R; summary, Aml alone): 1.5 h
